Test results: the SangsterLogP compilation
Each block holds one compound with its values, some of them ahead of it.

Assays:
[1] = method code SF-AS, from DOI: 10.1021/jm00254a011, PMID: 4845376
[2] = method code SF, from DOI: 10.1021/jm9405147, PMID: 8576915
[3] = method code SF-AS, from DOI: 10.1021/jm00163a043, PMID: 2153206; conditions: pH 7.0
[4] = not given; remark: listed apart in the source
[5] = not given; remark: listed apart in the source
[6] = method code SF-GLC, from DOI: 10.1080/03086648508073361
[7] = not given; remark: listed apart in the source
[8] = method code pH-metric titration, from DOI: 10.1002/(sici)1096-9063(199607)47:3<265::aid-ps416>3.0.co;2-f
[9] = not given; remark: listed apart in the source
[10] = method code SF-AS, from DOI: 10.1016/0048-3575(87)90152-0
[11] = not given; remark: listed apart in the source
[12] = method code SF, from DOI: 10.1034/j.1399-3011.2003.00037.x, PMID: 12492901
[13] = method code SF-AS, from DOI: 10.1139/cjpp-75-12-1362, PMID: 9534947
[14] = method code SF-AS, from Frater-Schröder, M.; Alder, S.; Zbinden, G. (1976). Neurotoxic effects of pyridoxine and analogs in rats. Proc. Eur. Soc. Toxicol, 17, 277-284.; conditions: pH 7.4
[15] = method code SF-AS, from DOI: 10.1111/j.2042-7158.1989.tb06384.x, PMID: 2576447; conditions: pH 7.4
[16] = method code SF-AS, from DOI: 10.1021/je700381u; conditions: pH 0.0
[17] = not given; remark: listed apart in the source
[18] = method code SF-AS, from PMID: 8197227; conditions: pH 7.4
[19] = method code SF, from DOI: 10.1016/j.bcp.2004.09.021, PMID: 15627482; conditions: pH 7.0
[20] = method code SF, from DOI: 10.1016/0378-5173(85)90102-4; conditions: pH 8.0

- logP [1]: 1.19
SMILES: CSC1=NCCN1c1ccc([N+](=O)[O-])o1

- logP [2]: 1.77
SMILES: NC1=CC(=O)c2ccccc2C1=O

- logD [3]: -1.62
SMILES: Nc1ccn(C2CC(O)C(CO)O2)c(=O)n1 (stereo unspecified)

- logP [1]: 0.25
SMILES: O=C1NCCN1c1ccc([N+](=O)[O-])o1

- logP [5]: 2.69
SMILES: O=c1oc2cc(O)ccc2c2oc3cc(O)ccc3c12

- logP [7]: 5.81
SMILES: Clc1cc2c(Cl)ccc(Cl)c2cc1Cl

- logP [5]: 3.21
SMILES: COc1ccc([C@@H]2COc3cc(O)ccc3C2)c(OC)c1

- logP [10]: 4.41
SMILES: CC(C)[C@H](Nc1ccccc1)C(=O)OCc1ccccc1

- logD ([12]; pH 2.0): 2.88
SMILES: CCCC(Nc1ccc([N+](=O)[O-])cc1[N+](=O)[O-])C(=O)O (racemic)

- logD ([12]; pH 2.0): 3.25
SMILES: CCCC[C@H](Nc1ccc([N+](=O)[O-])cc1[N+](=O)[O-])C(=O)O

- logP [7]: 5.12
SMILES: Clc1ccc2cc(Cl)c(Cl)cc2c1

- logP [13]: 3.95
SMILES: O=C(N/N=C/c1c(O)ccc2ccccc12)c1ccc(O)cc1

- logD ([12]; pH 2.0): 0.4
SMILES: CC(=O)N[C@@H](Cc1ccccc1)C(=O)O

- logD [16]: 2.28
SMILES: O=C(O)c1ccc(Cl)cc1F

- logP [1]: 1.7
SMILES: O=[N+]([O-])c1cnc(N2CCNC2=S)s1

- logP [13]: 3.58
SMILES: O=C(N/N=C/c1c(O)ccc2ccccc12)c1ccc([N+](=O)[O-])cc1

- logD [15]: -0.11
SMILES: CCn1c(=O)[nH]c(=O)c2nc[nH]c21

- logP [17]: 2.19
SMILES: O=C(O)c1ccc([N+](=O)[O-])cc1Cl

- logD [16]: 2.63
SMILES: O=C(O)c1ccc(F)cc1Cl

- logD [16]: 2.67
SMILES: O=C(O)c1ccc(Br)cc1F

- logP [17]: 4.82
SMILES: O=[N+]([O-])c1cc(-c2ccccc2)ccc1Br

- logD ([12]; pH 11.0): 0.16
SMILES: CC(=O)NC(Cc1c[nH]c2ccccc12)C(N)=O (stereo unspecified)

- logP [13]: 4.06
SMILES: COc1ccc(C(=O)N/N=C\c2c(O)ccc3ccccc23)cc1

- logP [10]: 3.18
SMILES: CC(C)CC(=O)Oc1ccccc1

- logP [13]: 3.41
SMILES: O=C(N/N=C/c1c(O)ccc2ccccc12)c1ccco1

- logD [16]: 3.16
SMILES: O=C(O)c1cc(Br)ccc1Cl

- logD [16]: 3.43
SMILES: O=C(O)c1cc(Br)ccc1F

- logP [10]: 3.33
SMILES: COC(=O)C(c1ccccc1)C(C)C (stereo unspecified)

- logP [7]: 5.77
SMILES: Clc1cc2c(Cl)cccc2c(Cl)c1Cl

- logP [10]: 3.26
SMILES: CC(C)CC(=O)OCc1ccccc1

- logD [20]: -0.15
SMILES: NC(C(=O)OCn1ncc2c(=O)[nH]cnc21)c1ccccc1 (stereo unspecified)

- logP [1]: 0.91
SMILES: O=C1NCCN1c1ncc([N+](=O)[O-])s1

- logD [18]: 1.4
SMILES: NC(=S)N/N=C\c1ccc2c(c1)OCO2

- logP [13]: 2.91
SMILES: CC(=O)N/N=C/c1c(O)ccc2ccccc12

- logP [10]: 3.29
SMILES: CCOC(C(=O)OCc1ccccc1)C(C)C (stereo unspecified)

- logD [20]: -0.49
SMILES: CN(C)CC(=O)OCn1ncc2c(=O)[nH]cnc21

- logP [2]: 2.08
SMILES: NC1=C(Cl)C(=O)c2ccccc2C1=O

- logD [18]: 0.14
SMILES: NC(=S)NNCc1ccc2c(c1)OCO2

- logP [17]: 1.99
SMILES: OCc1ccc(Cl)cc1

- logD [18]: 2.14
SMILES: O=C(NNc1nc(-c2ccccc2)cs1)c1ccc2c(c1)OCO2

- logP [17]: 2.13
SMILES: O=C(O)c1cc([N+](=O)[O-])ccc1Cl

- logP [5]: 2.62
SMILES: CC1(C)C=Cc2cc3c(cc2O1)OC1c2ccc(O)cc2OCC31O (stereo unspecified)

- logD ([12]; pH 2.0): 2.09
SMILES: C[C@H](Nc1ccc([N+](=O)[O-])cc1[N+](=O)[O-])C(=O)O

- logP [1]: 1.78
SMILES: CSC1=NCCN1c1ncc([N+](=O)[O-])s1

Continued, compound first:

SMILES: Ic1ccc2nc(-c3ccc(-c4nccs4)cc3)cn2c1
- logP: 3.06

SMILES: COC(=O)CCC1=CC2(CCC(=O)OC)OOC1(C)c1ccccc12 (stereo unspecified)
- logP [4]: 2.06

SMILES: CN(C)P1(=O)N(C)CCN1C
- logP [6]: 0.02

SMILES: CN1CCC[C@H]1c1cccnc1
- logP [8]: 0.93

SMILES: CC12C=CC(CCC(=O)O)(OO1)c1ccccc12 (stereo unspecified)
- logP [4]: 1.19

SMILES: CC1=C(N2CC2)C(=O)C(Cl)=C(N2CC2)C1=O
- logP [2]: 1.2

SMILES: Oc1ccc2c(c1)OC[C@H]1c3cc4c(cc3O[C@@H]21)OCO4
- logP [5]: 2.61

SMILES: CN(C)P(=O)(N1CCCC1)N1CCCC1
- logP [6]: 1.88

SMILES: Nc1ccn([C@H]2C=C[C@@H](CO)O2)c(=O)n1
- logD [3]: -0.7

SMILES: C=C(C)C(=O)OCC(C)(C)COC(=O)C(=C)C
- logP [9]: 2.79

SMILES: COC(=O)CCC12C=CC(C)(OO1)c1ccccc12 (stereo unspecified)
- logP [4]: 2.13

SMILES: CC1=C(N2CC2)C(=O)C(CCOC(N)=O)=C(N2CC2)C1=O
- logP [2]: 0.16

SMILES: N#Cc1c(Cl)c(Cl)c(Cl)c(C#N)c1Cl
- logP [11]: 3.8

SMILES: CNC(=O)Oc1ccc(C)c(C)c1
- logP [11]: 2.25

SMILES: C=C(C)C(=O)OCC(F)(F)F
- logP [9]: 1.56

SMILES: CCCCOCc1c(CO)cnc(C)c1O
- logD [14]: 1.34

SMILES: CCCCn1c(=O)n(C)c(=O)c2nc[nH]c21
- logD [15]: 1.29

SMILES: Cc1ncc(CO)c(Cc2ccc(N(C)C)cc2)c1O
- logD [14]: 0.81

SMILES: CCCn1c(=O)[nH]c(=O)c2nc[nH]c21
- logD [15]: 0.33

SMILES: Cc1cn([C@H]2CC[C@@H](CO)O2)c(=O)[nH]c1=S
- logD [3]: 0.44

SMILES: Cc1csc(NN=Cc2ccc3c(c2)OCO3)n1
- logD [18]: 1.5

SMILES: CCCCn1c(=O)[nH]c(=O)c2nc[nH]c21
- logD [15]: 0.84

SMILES: O=P(N1CCCC1)(N1CCCC1)N1CCCC1
- logP [6]: 1.67

SMILES: CC(C)C1(C)N=C(c2ncccc2C(=O)O)NC1=O (stereo unspecified)
- logD ([8]; pH 2.7): 0.22

SMILES: c1csc(NNCc2ccc3c(c2)OCO3)n1
- logD [18]: 1.8

SMILES: CCCCC1(C(=O)OC(C)C)CCC=[N+]1[O-] (stereo unspecified)
- logD [19]: 1.07

SMILES: CCn1c(=O)n(C)c(=O)c2nc[nH]c21
- logD [15]: 0.52

SMILES: CC(C(=O)O)N(C(=O)c1ccccc1)c1ccc(F)c(Cl)c1 (racemic)
- logP [8]: 3.09

SMILES: CN(C)P(=O)(N(C)C)N1CCCC1
- logP [6]: 0.82

SMILES: CCCCOC(=O)C1(CCCC)CCC=[N+]1[O-] (stereo unspecified)
- logD [19]: 1.75

SMILES: CCCCN(CCCC)Cc1c(CO)cnc(C)c1O
- logD [14]: 1.69

SMILES: CC(C)C[C@H](N)C(=O)OCn1ncc2c(=O)[nH]cnc21
- logD [20]: 0.19

SMILES: CCN(CC)P(=O)(N(CC)CC)N(CC)CC
- logP [6]: 2.53

SMILES: CNC(=O)Oc1ccccc1OC(C)C
- logP [11]: 1.99

SMILES: Clc1c(Cl)c(Cl)c2c(Cl)c(Cl)c(Cl)c(Cl)c2c1Cl
- logP [7]: 6.42

SMILES: N#Cc1ccc(O)cc1
- logP [17]: 1.28

SMILES: CCCCC1(C(=O)OC(C)(C)C)CCC=[N+]1[O-] (stereo unspecified)
- logD [19]: 1.36

SMILES: CNC(=O)Oc1cc(C)cc(C)c1
- logP [11]: 2.38

SMILES: Cc1cn([C@H]2C[C@H](O)[C@@H](CO)O2)c(=O)[nH]c1=S
- logD [3]: -0.07

SMILES: Clc1ccc2ccccc2c1Cl
- logP [7]: 4.42

SMILES: CC(Cc1ccc(C(C)(C)C)cc1)CN1C[C@@H](C)O[C@@H](C)C1 (stereo partly specified)
- logD ([8]; pH 9.0): 4.93

SMILES: CC(Oc1ccc(Oc2ccc(C(F)(F)F)cn2)cc1)C(=O)O (stereo unspecified)
- logP [8]: 3.18

SMILES: C=C(C)C(=O)OCCOC(=O)C(=C)C
- logP [9]: 1.22

SMILES: Cc1ccccc1C(=O)Nc1cccc(OC(C)C)c1
- logP [11]: 3.5

SMILES: C=C(C)C(=O)OCCCOC(=O)C(=C)C
- logP [9]: 1.86

SMILES: O=c1[nH]c(=S)ccn1[C@H]1CC[C@@H](CO)O1
- logD [3]: -0.21

SMILES: CC1=C(N2CC2)C(=O)C(Br)=C(N2CC2)C1=O
- logP [2]: 1.36

SMILES: Cc1ncc(CO)c(COCCC(C)C)c1O
- logD [14]: 0.83

SMILES: CC12C=CC(CCS(N)(=O)=O)(OO1)c1ccccc12 (stereo unspecified)
- logP [4]: 1.66

SMILES: CCCCC1(C(=O)OCC)C(CC)C(C)C=[N+]1[O-] (stereo unspecified)
- logD [19]: 1.01

SMILES: CCCCC1(C(=O)OCC)CCC=[N+]1[O-] (stereo unspecified)
- logD [19]: 0.69

SMILES: COc1ccc2c(c1)OCc1c-2oc2cc3c(cc12)C=CC(C)(C)O3
- logP [5]: 3.18

SMILES: CCN(CC)[C@@H](C)C(=O)OCn1ncc2c(=O)[nH]cnc21 (racemic)
- logD [20]: 0.72

SMILES: COC(=O)CCC12C=CC(CCC(=O)OC)(OO1)c1ccccc12
- logP [4]: 2.08

SMILES: CCCN(CCC)CC(=O)OCn1ncc2c(=O)[nH]cnc21
- logD [20]: 1.27

SMILES: Cc1ncc(CO)c2c1OC1=CCCCC1=C2
- logD [14]: 1.98

SMILES: C=C(C)C(=O)OCCCCCCCC(C)C
- logP [9]: 4.92
